# Source: patent US11807835B2, “Detergent compositions containing a stabilized enzyme by phosphonates” (ECOLAB USA INC., priority 2016, dated 2023)
# Experiments:
# Format in all cases: biochemical
# [1] = system: enzyme (protease, amylase, lipase); assay: Overall effects of phosphonates on enzyme activity (Table 3); conditions: overall effect of the phosphonate on enzyme activity in the detergent use solution
# Summary of the method: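 Protease, amylase and lipase activity in detergent use solutions with varied phosphonate levels, 4000 ppm in 5 GPG water at 120° F., sampled up to 4 h and frozen at −80° C. before assay. Activity given as % retention relative to t=0 (100%).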
# protease = assay: Protease activity retention in detergent use solution (4000 ppm, 5 GPG water; peptidyl substrate, glycine buffer pH 9.0); conditions: for Relative Protease Enzyme Activity: use solution at 120° F.
# Summary of the method: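 Detergent use solutions at 4000 ppm in 5 GPG water were held at 120° F with stirring and sampled up to 4 h, with aliquots flash-frozen. Activity was read on a peptidyl substrate in glycine buffer pH 9.0 by absorbance against a calibration curve. Retention is % activity relative to the t=0 sample.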
# lipase = assay: Lipase activity retention in detergent use solution (4000 ppm, 5 GPG water; p-nitrophenyl valerate, TRIS buffer pH 8.0); conditions: for Relative Lipase Enzyme Activity in a Use Solution of the All Ash Detergent Composition: Table 6F, 120º F.; for Relative Lipase Enzyme Activity: base formula
# Summary of the method: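 Lipase stability was measured in a detergent use solution under conditions mimicking presoak or manual warewash, with stirring in a water bath. Aliquots were taken over time and flash-frozen. Thawed samples were diluted in TRIS buffer at pH 8.0 and assayed with p-nitrophenyl valerate as substrate on a plate reader. Activity is reported as % retained relative to the time=0 sample.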
substance,measurement,setting,value
Diglycolamine phosphonate [DGAP],Stability (effects on enzyme activity),[1],Yes
same,Relative Protease Enzyme Activity,"protease; All Ash formula, phosphonate 0.3 wt-%, time 0 min",100.00%
same,Relative Protease Enzyme Activity,"protease; All Ash formula, phosphonate 0.3 wt-%, time 5 min",81.79%
same,Relative Protease Enzyme Activity,"protease; All Ash formula, phosphonate 0.3 wt-%, time 10 min",75.39%
same,Relative Protease Enzyme Activity,"protease; All Ash formula, phosphonate 0.3 wt-%, time 20 min",59.47%
same,Relative Protease Enzyme Activity,"protease; All Ash formula, phosphonate 0.3 wt-%, time 40 min",39.98%
same,Relative Protease Enzyme Activity,"protease; All Ash formula, phosphonate 0.3 wt-%, time 60 min",27.49%
same,Relative Protease Enzyme Activity,"protease; All Ash formula, phosphonate 0.3 wt-%, time 90 min",18.95%
same,Relative Protease Enzyme Activity,"protease; All Ash formula, phosphonate 0.3 wt-%, time 120 min",12.48%
same,Relative Protease Enzyme Activity,"protease; All Ash formula, phosphonate 0.3 wt-%, time 150 min",10.56%
same,Relative Protease Enzyme Activity,"protease; All Ash formula, phosphonate 0.3 wt-%, time 180 min",9.69%
same,Relative Protease Enzyme Activity,"protease; All Ash formula, phosphonate 0.3 wt-%, time 210 min",7.02%
same,Relative Protease Enzyme Activity,"protease; All Ash formula, phosphonate 0.3 wt-%, time 240 min",6.34%
same,protease stability in all ash formula,"protease; all ash formula, versus same composition with PBTC or HEDP without amine(s), FIG. 2D",more stable
same,Relative Protease Enzyme Activity,"protease; base formula, phosphonate 0.3 wt-%, lower half of Table 4A, time 5",98.30%
same,Relative Protease Enzyme Activity,"protease; base formula, phosphonate 0.3 wt-%, lower half of Table 4A, time 20",91.75%
same,Relative Protease Enzyme Activity,"protease; base formula, phosphonate 0.3 wt-%, lower half of Table 4A, time 90",84.87%
same,Relative Protease Enzyme Activity,"protease; base formula, phosphonate 0.3 wt-%, lower half of Table 4A, time 120",82.96%
same,Relative Protease Enzyme Activity,"protease; base formula, phosphonate 0.3 wt-%, lower half of Table 4A, time 150, unit not given",82.44%
same,Relative Protease Enzyme Activity,"protease; base formula, phosphonate 0.3 wt-%, lower half of Table 4A, time 210",76.14%
same,Relative Protease Enzyme Activity,"protease; base formula, phosphonate 0.3 wt-%, lower half of Table 4A, time '0'",100.00%
same,Relative Protease Enzyme Activity,"protease; base formula, phosphonate 0.3 wt-%, lower half of Table 4A, time '40'",89.16%
same,Relative Protease Enzyme Activity,"protease; base formula, phosphonate 0.3 wt-%, lower half of Table 4A, time 'Blank'",100.00%
same,Relative Protease Enzyme Activity,"protease; base formula, phosphonate 0.3 wt-%, lower half of Table 4A, time row printed '10'",92.44%
same,Relative Protease Enzyme Activity,"protease; base formula, phosphonate 0.3 wt-%, lower half of Table 4A, time row printed '60'",79.16%
same,Relative Protease Enzyme Activity,"protease; base formula, phosphonate 0.3 wt-%, lower half of Table 4A, time row printed '180'",75.52%
same,Relative Protease Enzyme Activity,"protease; base formula, phosphonate 0.6 wt-%, time 0 min",100.00%
same,Relative Protease Enzyme Activity,"protease; base formula, phosphonate 0.6 wt-%, time 5 min",105.28%
same,Relative Protease Enzyme Activity,"protease; base formula, phosphonate 0.6 wt-%, time 10 min",100.03%
same,Relative Protease Enzyme Activity,"protease; base formula, phosphonate 0.6 wt-%, time 20 min",101.24%
same,Relative Protease Enzyme Activity,"protease; base formula, phosphonate 0.6 wt-%, time 40 min",100.88%
same,Relative Protease Enzyme Activity,"protease; base formula, phosphonate 0.6 wt-%, time 90 min",98.76%
same,Relative Protease Enzyme Activity,"protease; base formula, phosphonate 0.6 wt-%, time 120 min",93.04%
same,Relative Protease Enzyme Activity,"protease; base formula, phosphonate 0.6 wt-%, time 150 min",88.27%
same,Relative Protease Enzyme Activity,"protease; base formula, phosphonate 0.6 wt-%, time 180 min",86.23%
same,Relative Protease Enzyme Activity,"protease; base formula, phosphonate 0.6 wt-%, time 210 min",88.24%
same,Relative Protease Enzyme Activity,"protease; base formula, phosphonate 0.6 wt-%, time 240 min",89.57%
same,Relative Protease Enzyme Activity,"protease; base formula, phosphonate at 0.1% elemental phosphorus, time 0 min",100.00%
same,Relative Protease Enzyme Activity,"protease; base formula, phosphonate at 0.1% elemental phosphorus, time 5 min",98.29%
same,Relative Protease Enzyme Activity,"protease; base formula, phosphonate at 0.1% elemental phosphorus, time 10 min",103.47%
same,Relative Protease Enzyme Activity,"protease; base formula, phosphonate at 0.1% elemental phosphorus, time 20 min",101.47%
same,Relative Protease Enzyme Activity,"protease; base formula, phosphonate at 0.1% elemental phosphorus, time 40 min",88.60%
same,Relative Protease Enzyme Activity,"protease; base formula, phosphonate at 0.1% elemental phosphorus, time 60 min",86.17%
same,Relative Protease Enzyme Activity,"protease; base formula, phosphonate at 0.1% elemental phosphorus, time 90 min",85.84%
same,Relative Protease Enzyme Activity,"protease; base formula, phosphonate at 0.1% elemental phosphorus, time 120 min",83.06%
same,Relative Protease Enzyme Activity,"protease; base formula, phosphonate at 0.1% elemental phosphorus, time 150 min",81.53%
same,Relative Protease Enzyme Activity,"protease; base formula, phosphonate at 0.1% elemental phosphorus, time 180 min",76.41%
same,Relative Protease Enzyme Activity,"protease; base formula, phosphonate at 0.1% elemental phosphorus, time 210 min",74.23%
same,Relative Protease Enzyme Activity,"protease; base formula, phosphonate at 0.1% elemental phosphorus, time 240 min",72.01%
same,Relative Lipase Enzyme Activity in a Use Solution of the All Ash Detergent Composition,"lipase; all ash formula, phosphonate 0.3 wt-%, time 0 min",100.00%
same,Relative Lipase Enzyme Activity in a Use Solution of the All Ash Detergent Composition,"lipase; all ash formula, phosphonate 0.3 wt-%, time 5 min",87.31%
same,Relative Lipase Enzyme Activity in a Use Solution of the All Ash Detergent Composition,"lipase; all ash formula, phosphonate 0.3 wt-%, time 10 min",76.38%
same,Relative Lipase Enzyme Activity in a Use Solution of the All Ash Detergent Composition,"lipase; all ash formula, phosphonate 0.3 wt-%, time 20 min",57.74%
same,Relative Lipase Enzyme Activity in a Use Solution of the All Ash Detergent Composition,"lipase; all ash formula, phosphonate 0.3 wt-%, time 40 min",40.00%
same,Relative Lipase Enzyme Activity in a Use Solution of the All Ash Detergent Composition,"lipase; all ash formula, phosphonate 0.3 wt-%, time 60 min",33.56%
same,Relative Lipase Enzyme Activity in a Use Solution of the All Ash Detergent Composition,"lipase; all ash formula, phosphonate 0.3 wt-%, time 90 min",25.59%
same,Relative Lipase Enzyme Activity in a Use Solution of the All Ash Detergent Composition,"lipase; all ash formula, phosphonate 0.3 wt-%, time 120 min",21.03%
same,Relative Lipase Enzyme Activity in a Use Solution of the All Ash Detergent Composition,"lipase; all ash formula, phosphonate 0.3 wt-%, time 150 min",17.27%
same,Relative Lipase Enzyme Activity in a Use Solution of the All Ash Detergent Composition,"lipase; all ash formula, phosphonate 0.3 wt-%, time 180 min",14.06%
same,Relative Lipase Enzyme Activity in a Use Solution of the All Ash Detergent Composition,"lipase; all ash formula, phosphonate 0.3 wt-%, time 210 min",12.18%
same,Relative Lipase Enzyme Activity in a Use Solution of the All Ash Detergent Composition,"lipase; all ash formula, phosphonate 0.3 wt-%, time 240 min",10.79%
same,lipase stability in all ash formula,"lipase; all ash formula, versus same composition with PBTC or HEDP without amine(s), FIG. 6G",more stable
same,Relative Lipase Enzyme Activity,"lipase; phosphonate 0.3 wt-%, use solution at 120° F., time 0 min",100.00%
same,Relative Lipase Enzyme Activity,"lipase; phosphonate 0.3 wt-%, use solution at 120° F., time 5 min",83.54%
same,Relative Lipase Enzyme Activity,"lipase; phosphonate 0.3 wt-%, use solution at 120° F., time 10 min",88.25%
same,Relative Lipase Enzyme Activity,"lipase; phosphonate 0.3 wt-%, use solution at 120° F., time 20 min",77.15%
same,Relative Lipase Enzyme Activity,"lipase; phosphonate 0.3 wt-%, use solution at 120° F., time 40 min",62.99%
same,Relative Lipase Enzyme Activity,"lipase; phosphonate 0.3 wt-%, use solution at 120° F., time 60 min",52.84%
same,Relative Lipase Enzyme Activity,"lipase; phosphonate 0.3 wt-%, use solution at 120° F., time 90 min",43.46%
same,Relative Lipase Enzyme Activity,"lipase; phosphonate 0.3 wt-%, use solution at 120° F., time 120 min",35.40%
same,Relative Lipase Enzyme Activity,"lipase; phosphonate 0.3 wt-%, use solution at 120° F., time 150 min",31.10%
same,Relative Lipase Enzyme Activity,"lipase; phosphonate 0.3 wt-%, use solution at 120° F., time 180 min",22.42%
same,Relative Lipase Enzyme Activity,"lipase; phosphonate 0.3 wt-%, use solution at 120° F., time 210 min",24.78%
same,Relative Lipase Enzyme Activity,"lipase; phosphonate 0.3 wt-%, use solution at 120° F., time 240 min",22.08%
same,Relative Lipase Enzyme Activity,"lipase; phosphonate 0.6 wt-%, use solution at 120º F., time 0 min",100.00%
same,Relative Lipase Enzyme Activity,"lipase; phosphonate 0.6 wt-%, use solution at 120º F., time 5 min",95.36%
same,Relative Lipase Enzyme Activity,"lipase; phosphonate 0.6 wt-%, use solution at 120º F., time 10 min",100.58%
same,Relative Lipase Enzyme Activity,"lipase; phosphonate 0.6 wt-%, use solution at 120º F., time 20 min",94.94%
same,Relative Lipase Enzyme Activity,"lipase; phosphonate 0.6 wt-%, use solution at 120º F., time 40 min",93.85%
same,Relative Lipase Enzyme Activity,"lipase; phosphonate 0.6 wt-%, use solution at 120º F., time 60 min",86.18%
same,Relative Lipase Enzyme Activity,"lipase; phosphonate 0.6 wt-%, use solution at 120º F., time 90 min",76.99%
same,Relative Lipase Enzyme Activity,"lipase; phosphonate 0.6 wt-%, use solution at 120º F., time 120 min",71.87%
same,Relative Lipase Enzyme Activity,"lipase; phosphonate 0.6 wt-%, use solution at 120º F., time 150 min",72.77%
same,Relative Lipase Enzyme Activity,"lipase; phosphonate 0.6 wt-%, use solution at 120º F., time 180 min",64.17%
same,Relative Lipase Enzyme Activity,"lipase; phosphonate 0.6 wt-%, use solution at 120º F., time 210 min",63.68%
same,Relative Lipase Enzyme Activity,"lipase; phosphonate 0.6 wt-%, use solution at 120º F., time 240 min",56.85%
same,Relative Lipase Enzyme Activity,"lipase; phosphonate at 0.1% elemental phosphorus, at 120º F. or at room temperature (as titled), time 0 min",100.00%
same,Relative Lipase Enzyme Activity,"lipase; phosphonate at 0.1% elemental phosphorus, at 120º F. or at room temperature (as titled), time 5 min",88.13%
same,Relative Lipase Enzyme Activity,"lipase; phosphonate at 0.1% elemental phosphorus, at 120º F. or at room temperature (as titled), time 10 min",80.42%
same,Relative Lipase Enzyme Activity,"lipase; phosphonate at 0.1% elemental phosphorus, at 120º F. or at room temperature (as titled), time 20 min",74.76%
same,Relative Lipase Enzyme Activity,"lipase; phosphonate at 0.1% elemental phosphorus, at 120º F. or at room temperature (as titled), time 40 min",49.43%
same,Relative Lipase Enzyme Activity,"lipase; phosphonate at 0.1% elemental phosphorus, at 120º F. or at room temperature (as titled), time 60 min",46.05%
same,Relative Lipase Enzyme Activity,"lipase; phosphonate at 0.1% elemental phosphorus, at 120º F. or at room temperature (as titled), time 90 min",39.53%
same,Relative Lipase Enzyme Activity,"lipase; phosphonate at 0.1% elemental phosphorus, at 120º F. or at room temperature (as titled), time 120 min",34.69%
same,Relative Lipase Enzyme Activity,"lipase; phosphonate at 0.1% elemental phosphorus, at 120º F. or at room temperature (as titled), time 150 min",28.57%
same,Relative Lipase Enzyme Activity,"lipase; phosphonate at 0.1% elemental phosphorus, at 120º F. or at room temperature (as titled), time 180 min",25.49%
same,Relative Lipase Enzyme Activity,"lipase; phosphonate at 0.1% elemental phosphorus, at 120º F. or at room temperature (as titled), time 210 min",24.18%
same,Relative Lipase Enzyme Activity,"lipase; phosphonate at 0.1% elemental phosphorus, at 120º F. or at room temperature (as titled), time 240 min",22.78%
